This experiment addresses T1, RXRα (Homo sapiens, UniProt P19793).
T1 construct: gene RXRA; RXRα-LBD
T1 sequence (P19793 198-462): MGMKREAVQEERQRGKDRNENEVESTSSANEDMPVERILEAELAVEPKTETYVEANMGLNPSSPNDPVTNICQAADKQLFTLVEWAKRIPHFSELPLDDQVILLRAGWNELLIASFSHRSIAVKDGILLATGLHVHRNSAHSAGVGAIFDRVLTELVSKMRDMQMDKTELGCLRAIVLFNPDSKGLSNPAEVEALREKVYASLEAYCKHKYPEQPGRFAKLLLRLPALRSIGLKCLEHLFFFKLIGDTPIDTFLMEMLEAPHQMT
Briefly: SPR (Biacore S200, immobilized RXRα-LBD); supported by antagonism of 9-cis-RA in GAL4-RXRα-LBD reporter assay. The format is binding. For orientation: In SPR one partner is held on a chip, and binding of the other changes the refractive index at the surface.

Broadly, the Kd is a measure of binding affinity in units of concentration. Regarding `COc1c(O)cc2oc3cc(O)c(CC=C(C)C)c(O)c3c(=O)c2c1CC=C(C)C` [compound 3, α-Mangostin], the affinity, expressed as Kd, was 39 µM.

Values taken from publication PMC8444262, “α-Mangostin Induces Apoptosis and Inhibits Metastasis of Breast Cancer Cells via Regulating RXRα-AKT Signaling Pathway” (Frontiers in Pharmacology, 2021).
